Experimental data taken from paper PMC11314410, “Synthesis and Anti-Trypanosoma cruzi Activity of New Pyrazole-Thiadiazole Scaffolds” (Molecules, 2024).
Like-named read-outs stand apart in the source and are kept apart here.

How the values were obtained:
[1] = tested on: Intracellular amastigotes of T. cruzi (Dm28c-Luc); assay: microbe, parasite or virus in culture; assay type: cell-based, Trypanosoma cruzi; conditions: for IC50 / IC90: Trypanosoma cruzi; for IC90: read-out: Anti-T. cruzi Activity Intracellular Amastigotes IC90
Protocol: (§1) Genetically modified T. cruzi parasites, of clone Dm28c (TcI) expressing the firefly luciferase enzyme gene (Dm28c-Luc), were kindly provided by Dr. Cristina Henriques. T. cruzi Dm28c-Luc was maintained in a Vero cell cultivated in RPMI 1640 medium supplemented with 10% FBS. At 4-day post-infection (dpi), trypomastigotes, released in the cell culture supernatant, were harvested, followed by sedimentation (4000 rpm/20 min/4 °C) and quantification in a Neubauer chamber. Isolated trypomastigotes were used in the phenotypic screening assays as well as the antiparasitic activity in 3D cardiac microtissues, recovery (washout), and drug combination assays.
The activity of pyrazole-thiadiazole derivatives against intracellular amastigotes was evaluated in 24 h-T. cruzi infected Vero cell cultures (1.5 × 10^4 cells/well) at a 10:1 ratio. The cultures were washed and incubated with serial dilutions of the derivatives or Bz (100–0.41 µM). Drug treatment was carried out for 72 h at 37 °C and the parasite viability was determined by luminescence readout after D-Luciferin substrate addition (300 µg/mL). The reading was performed in the Glomax reader. The cell cultures incubated with the culture medium containing dimethylsulphoxide (DMSO; concentration ≤ 1%) were used as the […]. The concentrations required to inhibit parasite viability by 50% (IC50) and 90% (IC90) were calculated using Prism GraphPad software (version 8.2.1). The selectivity index (SI), which measures the window between cytotoxicity (CC50) and anti-T. cruzi activity (IC50), was calculated as CC50/IC50. A minimum of 3 independent assays in duplicate were performed.

[2] = tested on: Trypomastigotes of T. cruzi (Dm28c-Luc); assay: microbe, parasite or virus in culture; assay type: cell-based, Trypanosoma cruzi; conditions: for IC50 / IC90: Trypanosoma cruzi, Dm28c-Luc, 24 h treatment; for IC50: 24 h, mean ± SD, read-out: Anti-T. cruzi Activity Trypomastigotes IC50; for IC90: read-out: Anti-T. cruzi Activity Trypomastigotes IC90
Protocol: as §1
Drug screening was performed against clinically relevant forms of T. cruzi (amastigotes and trypomastigotes). Trypomastigotes, Dm28c-Luc (1 × 10^6 parasites/well), were added to 96-well plates and incubated with pyrazole-thiadiazole derivatives or Bz (100–0.41 µM). After 24 h of treatment (37 °C), the viability of the parasites was analyzed by adding a D-Luciferin solution (300 µg/mL) and luminescence was measured in the Glomax microplate reader.

[3] = Toxicity in mammalian cells (CellTiter Glo, 72 h); assay type: cell-based; conditions: African green monkey, Vero cells; 72 h, ATP levels; read-out: Cytotoxicity Vero Cells CC50
Protocol: Vero cell cultures grown in RPMI 1640 medium containing 10% fetal bovine serum (FBS) were cultured at 37 °C in a humidified atmosphere of 5% CO2 [82]. The cultures were used for drug screening assays and to obtain culture-derived trypomastigotes of T. cruzi.
Vero cells (1.5 ×10^4 cells/well), cultivated for 24 h at 37 °C in white 96-well plates with clear bottoms, were used to assess the toxicity of the pyrazole-thiadiazole derivatives (series 1 and 2). After washing, the cells were incubated for 72 h at 37 °C with different drug concentrations (500–1.95 μM). Cell viability was measured by adding 20 μL/well of CellTiter Glo reagent (Promega Corporation, Madison, WI, USA). This cell viability kit generates a luminescent signal proportional to the amount of ATP. The luminescence readout was performed using the Glomax Microplate Reader (Promega Corporation, Madison, WI, USA). Thus, the 50% cytotoxicity concentration (CC50), which reduces the cell viability by 50% (CC50), was calculated with Prism GraphPad software (version 8.2.1).

[4] = Vero, read-out: Intracellular Amastigotes pIC50 (converted)
[5] = Dm28c-Luc in Vero cells, 72 h treatment, mean ± SD, read-out: Anti-T. cruzi Activity Intracellular Amastigotes IC50
[6] = Dm28c-Luc in Vero cells, 72 h treatment, mean ± SD

| Structure (SMILES) | melting point [°C] | Intracellular Amastigotes SI (CC50 of Vero cells/IC50 of intracellular amastigotes) [1] | IC50 [1, 4] [µM] | IC50 [1, 5] [µM] | IC90 [1, 6] [µM] | Trypomastigotes SI (CC50 of Vero cells/IC50 of trypomastigotes) [2] | IC50 [2] [µM] | IC90 [2] [µM] | CC50 at 72 h [3] [µM] |
| --- | --- | --- | --- | --- | --- | --- | --- | --- | --- |
| Nc1nnc(-c2cnn(-c3ccccc3)c2)s1 [1a, 5-Amino-2-(1-phenyl-1H-pyrazol-4-yl)-1,3,4-thiadiazole] | 289 to 291 | >7.49 | 69.2 | 68.6 ± 1.03 | > 70 | >5 | > 100 | > 100 | > 500 |
| Nc1nnc(-c2cnn(-c3cccc(Cl)c3)c2)s1 [1b, 5-Amino-2-(1-(3-chlorophenyl)-1H-pyrazol-4-yl)-1,3,4-thiadiazole] | 310 to 311 | >7.73 | 67.6 | 68.1 ± 2.99 | > 70 | >5 | > 100 | > 100 | > 500 |
| Nc1nnc(-c2cnn(-c3cc(Cl)cc(Cl)c3)c2)s1 [1d, 5-Amino-2-(1-(3,5-dichlorophenyl)-1H-pyrazol-4-yl)-1,3,4-thiadiazole] | 283 to 285 | >8.29 | 58.9 | 58.7 ± 12.3 | > 70 | >5 | > 100 | > 100 | > 500 |
| Nc1nnc(-c2cnn(-c3ccc(Cl)c(Cl)c3)c2)s1 [1e, 5-Amino-2-(1-(3,4-dichlorophenyl)-1H-pyrazol-4-yl)-1,3,4-thiadiazole] | 313 to 315 | >25.64 | 18.6 | 18.8 ± 2.28 | 40.4 ± 13.3 | >5 | > 100 | > 100 | > 500 |
| Nc1nnc(-c2cnn(-c3ccc(Cl)cc3)c2)s1 [1f, 5-Amino-2-(1-(4-chlorophenyl)-1H-pyrazol-4-yl)-1,3,4-thiadiazole] | 328 to 330 | >7.14 | > 70.8 | > 70 | > 70 | >5 | > 100 | > 100 | > 500 |
| Nc1nnc(-c2cnn(-c3ccc(F)cc3)c2)s1 [1g, 5-Amino-2-(1-(4-fluorophenyl)-1H-pyrazol-4-yl)-1,3,4-thiadiazole] | 335 to 337 | >7.14 | > 70.8 | > 70 | > 70 | >5 | > 100 | > 100 | > 500 |
| Nc1nnc(-c2cnn(-c3cccc(F)c3)c2)s1 [1h, 5-Amino-2-(1-(3-fluorophenyl)-1H-pyrazol-4-yl)-1,3,4-thiadiazole] | 302 to 303 | >7.86 | 67.6 | 66.8 ± 3.37 | > 70 | >5 | > 100 | > 100 | > 500 |
| Nc1nnc(-c2cnn(-c3ccc(Br)cc3)c2)s1 [1i, 5-Amino-2-(1-(4-bromophenyl)-1H-pyrazol-4-yl)-1,3,4-thiadiazole] | 340 to 341 | >17.53 | 28.2 | 28.4 ± 1.77 | > 70 | >5 | > 100 | > 100 | > 500 |
| Nc1nnc(-c2cnn(-c3cccc(Br)c3)c2)s1 [1j, 5-Amino-2-(1-(3-bromophenyl)-1H-pyrazol-4-yl)-1,3,4-thiadiazole] | 301 to 303 | >7.14 | > 70.8 | > 70 | > 70 | >5 | > 100 | > 100 | > 500 |
| Nc1nnc(-c2cnn(-c3ccc([N+](=O)[O-])cc3)c2)s1 [1k, 5-Amino-2-(1-(4-nitrophenyl)-1H-pyrazol-4-yl)-1,3,4-thiadiazole] | 331 to 333 | >8.16 | 58.9 | 58.3 ± 12.8 | > 70 | >5 | > 100 | > 100 | > 500 |
| COc1ccc(-n2cc(-c3nnc(N)s3)cn2)cc1 [1l, 5-Amino-2-(1-(4-methoxyphenyl)-1H-pyrazol-4-yl)-1,3,4-thiadiazole] | 298 to 300 | >19.08 | 24.5 | 24.5 ± 4.21 | > 70 | >9.43 | 53 ± 4.44 | > 100 | > 500 |
| Nc1nnc(-c2cnn(-c3ccccc3)c2N)s1 [2a, 5-Amino-2-(5-amino-1-phenyl-1H-pyrazol-4-yl)-1,3,4-thiadiazole] | 131 to 132 | >7.14 | > 70.8 | > 70 | > 70 | >5 | > 100 | > 100 | > 500 |
| Nc1nnc(-c2cnn(-c3cccc(Cl)c3)c2N)s1 [2b, 5-Amino-2-(5-amino-1-(3-chlorophenyl)-1H-pyrazol-4-yl)-1,3,4-thiadiazole] | 289 to 291 | >7.14 | > 70.8 | > 70 | > 70 | >5 | > 100 | > 100 | > 500 |
| Nc1nnc(-c2cnn(-c3cc(Cl)cc(Cl)c3)c2N)s1 [2d, 5-Amino-2-(5-amino-1-(3,5-dichlorophenyl)-1H-pyrazol-4-yl)-1,3,4-thiadiazole] | 299 to 300 | >7.14 | > 70.8 | > 70 | > 70 | >5 | > 100 | > 100 | > 500 |
| Nc1nnc(-c2cnn(-c3ccc(Cl)c(Cl)c3)c2N)s1 [2e, 5-Amino-2-(5-amino-1-(3,4-dichlorophenyl)-1H-pyrazol-4-yl)-1,3,4-thiadiazole] | 258 to 260 | >13.73 | 33.9 | 33.6 ± 2.16 | 58.8 ± 8.26 | >6.88 | 72.6 ± 6.76 | > 100 | > 500 |
| Nc1nnc(-c2cnn(-c3ccc(Cl)cc3)c2N)s1 [2f, 5-Amino-2-(5-amino-1-(4-chlorophenyl)-1H-pyrazol-4-yl)-1,3,4-thiadiazole] | 238 to 240 | >7.14 | > 70.8 | > 70 | > 70 | >5 | > 100 | > 100 | > 500 |
